Results published in patent US4812409A, “Hydrolyzable fluorescent substrates and analytical determinations using same” (Eastman Kodak Company, priority 1986, dated 1989).
Values belong to the compound of their own block, whether it stands above or below them.

Experiments:
[1] = tested on: Enterobacter cloacae (ATCC 23355); test: Detection of Enterobacter cloacae with β-D-xylosidase substrate, fluorescence; type: cell-based; settings: for Relative Fluorescence: 37° C., ex 540 nm, em 620 nm
Description: (§1) Cells were prepared as follows. A β-D-xylosidase induction medium was prepared by adding the following materials in order to 350 μl of 0.1 molar sodium, potassium phosphate buffer (pH 7.0), 25 μl 5% yeast extract, 50 μl of 4% (NH4)2 HPO4 and 1% KCl, 50 μl 0.0075% MnSO4.H2 O and 0.01% FeSO4.7H2 O. This mixture was autoclaved for 30 minutes, then cooled. Just before incubation, 25 μl of 20% xylose solution and 2% MgSO4.7H2 O, which had been filter sterilized or autoclaved separately, were added. Klebsiella pneumoniae (ATCC 13882) and Enterobacter cloacae (ATCC 23355) were both grown in this medium for 18 hours at 37° C. Ten milliliters of cells were harvested by centrifugation, washed, and resuspended in 0.1 molar potassium phosphate buffer (pH 7.0). The cell concentration was adjusted to approximately 5×10^8 cells/ml (optical density 0.800 at 620 nm).
(§2) In two milliliters HA 96 well titration plates were placed 200 μl of the cell suspension. To plate 1 was added 100 μl of the substrate solution of Example 1 without surfactant (10 μg/μl N,N-dimethylformamide in 9 μl potassium phosphate buffer), to plate 2 was added the substrate solution with surfactant (10 μg/μl N,N-dimethylformamide and 200 μl TRITON X-100 surfactant in 9 μl potassium phosphate buffer).
(§3) After the substrate was added, an initial reading was taken, the plates were kept at 37° C., and additional readings were taken after 5, 10, 15, 30, and 60 minutes. The average of three replicates was used. A commercially available Dynatech Microfluor Reader, modified with an excitation filter at 540 nm, an emission filter at 620 nm, a 200-watt tungsten lamp and a heating element, was used to measure fluorescence.

[2] = tested on: Klebsiella pneumoniae (ATCC 13882); test: Detection of Klebsiella pneumoniae with β-D-xylosidase substrate, fluorescence; type: cell-based; settings: for Relative Fluorescence: 37° C., ex 540 nm, em 620 nm
Description: as §1, §2, §3

[3] = biological target: T1, trypsin, Type I (Bos taurus, UniProt P00760); test: Determination of hydrolytic enzymes: trypsin Type I; type: biochemical; settings: pH 7.8, 25° C., ex 540 nm, em 595 nm
T1 sequence (P00760 24-246): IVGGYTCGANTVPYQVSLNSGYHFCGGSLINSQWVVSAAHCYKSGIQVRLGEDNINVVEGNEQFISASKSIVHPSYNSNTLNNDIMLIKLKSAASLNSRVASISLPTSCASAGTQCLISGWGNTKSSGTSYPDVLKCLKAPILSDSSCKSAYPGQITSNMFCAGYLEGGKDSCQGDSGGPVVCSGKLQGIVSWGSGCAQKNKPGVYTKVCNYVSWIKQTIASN
Description: (§4) Test solutions were prepared with the following: 50 μl of substrate (1 mg/μl methanol), […] of 0.05 molar potassium phosphate buffer at the indicated pH (near the optimum for each enzyme) and 10 μl of enzyme. Enzymes to be determined included carboxylesterase, Type I (pH 7.8) and Type II (pH 6.0), aminoacylase, Grade I (pH 7.0), and trypsin, Type I and III (pH 7.8). Sample preparations and testing were done in an area protected from light. The enzyme solutions were kept at 0° C. prior to use, and assays were run at 25° C. with fluorescence measured at an excitation of 540 nm and an emission of 595 nm.

[4] = biological target: T2, trypsin, Type III (Bos taurus, UniProt P00760); test: Determination of hydrolytic enzymes: trypsin Type III; type: biochemical; settings: pH 7.8, 25° C., ex 540 nm, em 595 nm
T2 sequence (P00760 24-246): T1 sequence (P00760 24-246)
Description: as §4

[5] = biological target: T3, aminoacylase, Grade I (Sus scrofa, UniProt P37111); test: Determination of hydrolytic enzymes: aminoacylase Grade I; type: biochemical; settings: Final Enzyme Activity 3,000 I.U., pH 7.0, 25° C., ex 540 nm, em 595 nm
T3 sequence (P37111 2-407 limits assumed): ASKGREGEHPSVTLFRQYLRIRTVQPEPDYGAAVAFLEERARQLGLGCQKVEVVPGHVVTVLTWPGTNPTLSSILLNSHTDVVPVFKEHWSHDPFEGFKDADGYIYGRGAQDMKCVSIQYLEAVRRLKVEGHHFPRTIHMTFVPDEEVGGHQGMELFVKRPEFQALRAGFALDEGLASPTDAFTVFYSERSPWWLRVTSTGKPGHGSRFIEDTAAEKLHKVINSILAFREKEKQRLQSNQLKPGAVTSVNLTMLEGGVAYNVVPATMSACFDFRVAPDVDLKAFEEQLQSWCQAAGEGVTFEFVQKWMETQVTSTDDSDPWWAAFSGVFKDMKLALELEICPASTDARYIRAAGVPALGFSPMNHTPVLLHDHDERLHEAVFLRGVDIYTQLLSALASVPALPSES
Description: as §4

[6] = tested on: carboxylesterase, Type II; test: Determination of hydrolytic enzymes: carboxylesterase Type II; type: biochemical; settings: Final Enzyme Activity 15 I.U., pH 6.0, 25° C., ex 540 nm, em 595 nm
Description: as §4

[7] = tested on: carboxylesterase, Type I; test: Determination of hydrolytic enzymes: carboxylesterase Type I; type: biochemical; settings: pH 7.8, 25° C., ex 540 nm, em 595 nm
Description: as §4

[8] = Millititer Plate 1, without surfactant, 0 min
[9] = Millititer Plate 1, without surfactant, 5 min
[10] = Millititer Plate 1, without surfactant, 10 min
[11] = Millititer Plate 1, without surfactant, 15 min
[12] = Millititer Plate 1, without surfactant, 30 min
[13] = Millititer Plate 1, without surfactant, 60 min
[14] = Millititer Plate 2, with TRITON X-100 surfactant, 0 min
[15] = Millititer Plate 2, with TRITON X-100 surfactant, 5 min
[16] = Millititer Plate 2, with TRITON X-100 surfactant, 10 min
[17] = Millititer Plate 2, with TRITON X-100 surfactant, 15 min
[18] = Millititer Plate 2, with TRITON X-100 surfactant, 30 min
[19] = Millititer Plate 2, with TRITON X-100 surfactant, 60 min
[20] = both substrate solutions (with and without surfactant)

SMILES: O=C1C=Cc2ccc(O[C@@H]3OC[C@@H](O)[C@H](O)[C@H]3O)c3cccc1c23 [Example 1, 1-(6-Oxyphenalenone)-β-D-xylopyranose]
- Relative Fluorescence [1, 8]: 525
- Relative Fluorescence [1, 9]: 684
- Relative Fluorescence [1, 10]: 925
- Relative Fluorescence [1, 11]: 1150
- Relative Fluorescence [1, 12]: 2245
- Relative Fluorescence [1, 13]: 2717
- Relative Fluorescence [1, 14]: 586
- Relative Fluorescence [1, 15]: 902
- Relative Fluorescence [1, 16]: 1341
- Relative Fluorescence [1, 17]: 1795
- Relative Fluorescence [1, 18]: 2626
- Relative Fluorescence [1, 19]: 3003
- Time at which the microorganism can be detected [1, 20]: 15 min
- Relative Fluorescence [2, 8]: 500
- Relative Fluorescence [2, 9]: 585
- Relative Fluorescence [2, 10]: 698
- Relative Fluorescence [2, 11]: 752
- Relative Fluorescence [2, 12]: 1205
- Relative Fluorescence [2, 13]: 1686
- Relative Fluorescence [2, 14]: 557
- Relative Fluorescence [2, 15]: 635
- Relative Fluorescence [2, 16]: 741
- Relative Fluorescence [2, 17]: 869
- Relative Fluorescence [2, 18]: 1232
- Relative Fluorescence [2, 19]: 1976
- Time at which the microorganism can be detected [2, 20]: 15 min

- Relative Fluorescence (minus control with no enzyme) ([3]; Final Enzyme Activity 5,000 I.U., 0 Min): 0
- Relative Fluorescence (minus control with no enzyme) ([3]; Final Enzyme Activity 5,000 I.U., 10 Min): 0.5
- Relative Fluorescence (minus control with no enzyme) ([3]; Final Enzyme Activity 5,000 I.U., 15 Min): 0.6
- Relative Fluorescence (minus control with no enzyme) ([3]; Final Enzyme Activity 5,000 I.U., 30 Min): 0.8
- Relative Fluorescence (minus control with no enzyme) ([3]; Final Enzyme Activity 50,000 I.U., 0 Min): 0
- Relative Fluorescence (minus control with no enzyme) ([3]; Final Enzyme Activity 50,000 I.U., 10 Min): 0.7
- Relative Fluorescence (minus control with no enzyme) ([3]; Final Enzyme Activity 50,000 I.U., 15 Min): 0.9
- Relative Fluorescence (minus control with no enzyme) ([3]; Final Enzyme Activity 50,000 I.U., 30 Min): 1.5
- Relative Fluorescence (minus control with no enzyme) ([4]; Final Enzyme Activity 6,000 I.U., 0 Min): 2.7
- Relative Fluorescence (minus control with no enzyme) ([4]; Final Enzyme Activity 6,000 I.U., 10 Min): 2.8
- Relative Fluorescence (minus control with no enzyme) ([4]; Final Enzyme Activity 6,000 I.U., 15 Min): 3.0
- Relative Fluorescence (minus control with no enzyme) ([4]; Final Enzyme Activity 6,000 I.U., 30 Min): 3.6
- Relative Fluorescence (minus control with no enzyme) ([4]; Final Enzyme Activity 60,000 I.U., 0 Min): 2.2
- Relative Fluorescence (minus control with no enzyme) ([4]; Final Enzyme Activity 60,000 I.U., 10 Min): 3.5
- Relative Fluorescence (minus control with no enzyme) ([4]; Final Enzyme Activity 60,000 I.U., 15 Min): 3.4
- Relative Fluorescence (minus control with no enzyme) ([4]; Final Enzyme Activity 60,000 I.U., 30 Min): 4.3
- Relative Fluorescence (minus control with no enzyme) ([5]; 0 Min): 1.5
- Relative Fluorescence (minus control with no enzyme) ([5]; 10 Min): 2.0
- Relative Fluorescence (minus control with no enzyme) ([5]; 15 Min): 2.1
- Relative Fluorescence (minus control with no enzyme) ([5]; 30 Min): 2.3
- Relative Fluorescence (minus control with no enzyme) ([6]; 0 Min): 2.0
- Relative Fluorescence (minus control with no enzyme) ([6]; 10 Min): 5.4
- Relative Fluorescence (minus control with no enzyme) ([6]; 15 Min): 8.0
- Relative Fluorescence (minus control with no enzyme) ([6]; 30 Min): 15.8
- Relative Fluorescence (minus control with no enzyme) ([7]; Final Enzyme Activity 9.6 I.U., 0 Min): 2.7
- Relative Fluorescence (minus control with no enzyme) ([7]; Final Enzyme Activity 9.6 I.U., 10 Min): 3.6
- Relative Fluorescence (minus control with no enzyme) ([7]; Final Enzyme Activity 9.6 I.U., 15 Min): 4.1
- Relative Fluorescence (minus control with no enzyme) ([7]; Final Enzyme Activity 9.6 I.U., 30 Min): 4.4
- Relative Fluorescence (minus control with no enzyme) ([7]; Final Enzyme Activity 96 I.U., 0 Min): 3.0
- Relative Fluorescence (minus control with no enzyme) ([7]; Final Enzyme Activity 96 I.U., 10 Min): 6.1
- Relative Fluorescence (minus control with no enzyme) ([7]; Final Enzyme Activity 96 I.U., 15 Min): 7.9
- Relative Fluorescence (minus control with no enzyme) ([7]; Final Enzyme Activity 96 I.U., 30 Min): 12.5
SMILES: CC(=O)Nc1ccc2c3c(cccc13)C(=O)C=C2 [Example 5]
